We go through 22 molecules from PubChem BioAssay AID328 (DTP/NCI, 2004).

This test concerns BDF1 mice, P388 leukemia ip, median survival T/C. The test can be described thus: NCI In Vivo Anticancer Drug Screen. Data for tumor model P388 Leukemia (intraperitoneal) in B6D2F1 (BDF1) mice. The note with it: endpoint: median survival time, higher = longer survival. In a few lines: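 Antitumour effect was judged in vivo: survival in drug-treated mice, normalised to that of vehicle-dosed controls, gives the reported T/C.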

The mark [1] stands for this setting: dose: 50.0 mg/kg/injection, schedule: Q01DX009 (ip), vehicle: Klucel (hydroxypropylcellulose) (HPC).
Where [2] appears, read: dose: 100.0 mg/kg/injection, schedule: Q04DX003 (ip), vehicle: Klucel (hydroxypropylcellulose) (HPC).
The mark [3] stands for this setting: dose: 200.0 mg/kg/injection, schedule: Q04DX003 (ip), vehicle: Klucel (hydroxypropylcellulose) (HPC).
Setting [4] is: dose: 400.0 mg/kg/injection, schedule: Q04DX003 (ip), vehicle: Klucel (hydroxypropylcellulose) (HPC).
Setting [5] is: dose: 50.0 mg/kg/injection, schedule: Q01DX009 (ip), vehicle: saline.
Setting [6] is: dose: 100.0 mg/kg/injection, schedule: Q01DX009 (ip), vehicle: saline.
[7] abbreviates: dose: 100.0 mg/kg/injection, schedule: Q01DX009 (ip), vehicle: saline with Tween-80.
The mark [8] stands for this setting: dose: 200.0 mg/kg/injection, schedule: Q01DX009 (ip), vehicle: saline with Tween-80.
The mark [9] stands for this setting: dose: 400.0 mg/kg/injection, schedule: Q01DX009 (ip), vehicle: saline with Tween-80.
Where [10] appears, read: dose: 50.0 mg/kg/injection, schedule: Q01DX009 (ip), vehicle: saline with Tween-80.
[11] abbreviates: dose: 25.0 mg/kg/injection, schedule: Q01DX009 (ip), vehicle: saline.

“And” between values parts separate entries of the source, which are not always exact repeats. Equal values may be shown once. Inconclusive results and toxic doses are left out.

Regarding `Cc1ncc2n1C=CN(C(=O)c1ccc([N+](=O)[O-])cc1)C2O` (centres undefined), the T/C (dose: 50.0 mg/kg/injection, schedule: Q01DX009 (ip), vehicle: water) was 103 % of control; the T/C (dose: 100.0 mg/kg/injection, schedule: Q01DX009 (ip), vehicle: water) was 94 % of control; the T/C (dose: 100.0 mg/kg/injection, schedule: Q04DX003 (ip), vehicle: water) was 102 % of control; the T/C (dose: 200.0 mg/kg/injection, schedule: Q01DX009 (ip), vehicle: water) is 93 % of control; the T/C (dose: 200.0 mg/kg/injection, schedule: Q04DX003 (ip), vehicle: water) was 93 % of control; the T/C (dose: 400.0 mg/kg/injection, schedule: Q01DX009 (ip), vehicle: water) was 94 % of control. Also, the T/C (dose: 400.0 mg/kg/injection, schedule: Q04DX003 (ip), vehicle: water) was 98 % of control.
`CN1C(=O)CN=C(c2ccc[nH]2)c2cc(Cl)ccc21` (tested in a mixture with another compound): the T/C by setting is: under setting [1], 104 % of control; (dose: 100.0 mg/kg/injection, schedule: Q01DX009 (ip), vehicle: Klucel (hydroxypropylcellulose) (HPC)) 109 % of control; under setting [2], 100 % of control; (dose: 200.0 mg/kg/injection, schedule: Q01DX009 (ip), vehicle: Klucel (hydroxypropylcellulose) (HPC)) 100 % of control; under setting [3], 104 % of control; under setting [4], 90 % of control.
Take `Cc1cc(=O)[nH]c2c1ccc1[nH]c(=O)cc(C)c12`: the T/C (dose: 100.0 mg/kg/injection, schedule: Q01DX001 (ip), vehicle: Klucel (hydroxypropylcellulose) (HPC)) is 91 % of control and the T/C (dose: 200.0 mg/kg/injection, schedule: Q01DX001 (ip), vehicle: Klucel (hydroxypropylcellulose) (HPC)) was 87 % of control.
Consider `Clc1ccc(N2CCN(CCCN3CCN(c4cccc(Cl)c4)CC3)CC2)cc1`, for which the T/C is, setting by setting: (dose: 50.0 mg/kg/injection, schedule: Q04DX003 (ip), vehicle: saline sonified) 100 % of control; (dose: 100.0 mg/kg/injection, schedule: Q04DX003 (ip), vehicle: saline sonified) 100 % of control; (dose: 200.0 mg/kg/injection, schedule: Q04DX003 (ip), vehicle: saline sonified) 91 % of control.
As for `CSc1nc(N)nc2c1ncn2C1CC(O)C(CO)O1` (centres undefined), the T/C is 95 % of control under setting [5]; 95 % of control and 101 % of control under setting [6]; 100 % of control (dose: 200.0 mg/kg/injection, schedule: Q01DX009 (ip), vehicle: saline); 97 % of control (dose: 400.0 mg/kg/injection, schedule: Q01DX009 (ip), vehicle: saline).
For the molecule `OCc1ccccc1`, the T/C reads like this: under setting [7], 95 % of control; under setting [8], 104 % of control; under setting [9], 108 % of control.
`O=C(NC(=O)c1c(F)cccc1F)Nc1ccc(Br)cc1`: the T/C is 101 % of control under setting [10], 100 % of control under setting [7] and 96 % of control under setting [8].
Take `CC(=O)OCC(=O)[C@@]1(O)CC[C@H]2[C@@H]3CCC4=CC(=O)CC[C@]4(C)[C@@]3(F)[C@@H](O)C[C@@]21C`: the T/C is, setting by setting: (dose: 50.0 mg/kg/injection, schedule: Q01DX009 (sc), vehicle: steriod suspending solution) 104 % of control; (dose: 100.0 mg/kg/injection, schedule: Q01DX009 (sc), vehicle: steriod suspending solution) 104 % of control; (dose: 100.0 mg/kg/injection, schedule: Q04DX003 (sc), vehicle: steriod suspending solution) 115 % of control; (dose: 200.0 mg/kg/injection, schedule: Q04DX003 (sc), vehicle: steriod suspending solution) 115 % of control.
For the molecule `Cc1ccc(S(=O)(=O)Nc2ccccc2)c(CC(O)(c2ccccc2)c2ccccc2)c1`, the T/C reads like this: under setting [10], 90 % of control; under setting [7], 95 % of control.
For the molecule `CN1CCN(c2ccc([N+](=O)[O-])c3no[n+]([O-])c23)CC1`, the T/C is, setting by setting: (dose: 10.0 mg/kg/injection, schedule: Q01DX009 (ip), vehicle: saline with Tween-80) 166 % of control; (dose: 20.0 mg/kg/injection, schedule: Q01DX009 (ip), vehicle: saline with Tween-80) 169 % of control.
Turning to `CCO/C=C1\SC(=S)N(c2ccc(C(=O)O)cc2)C1=O`, the T/C is, setting by setting: (dose: 11.0 mg/kg/injection, schedule: Q01DX009 (ip), vehicle: saline) 104 % of control; under setting [11], 122 % of control; (dose: 37.5 mg/kg/injection, schedule: Q01DX009 (ip), vehicle: saline) 100 % of control; under setting [7], 116 % of control.
Take `NC(N)=Nc1ccc(F)cc1`: the T/C runs as follows: under setting [10], 110 % of control; under setting [7], 95 % of control; under setting [8], 90 % of control.
Consider `O=S(=O)(Nc1ccc(NS(=O)(=O)c2ccccc2)nc1)c1ccccc1`, for which the T/C by setting is: under setting [2], 100 % of control; under setting [3], 104 % of control; under setting [4], 100 % of control.
Regarding `CN(C)CCC=C1c2ccccc2-c2ccccc21`, the T/C is 100 % of control (dose: 12.5 mg/kg/injection, schedule: Q04DX003 (ip), vehicle: saline); 115 % of control under setting [11]; 90 % of control (dose: 25.0 mg/kg/injection, schedule: Q04DX003 (ip), vehicle: saline); 109 % of control and 120 % of control under setting [5]; 100 % of control (dose: 50.0 mg/kg/injection, schedule: Q04DX003 (ip), vehicle: saline); 113 % of control (dose: 75.0 mg/kg/injection, schedule: Q04DX003 (ip), vehicle: saline). The T/C was 113 % of control under setting [6] and 95 % of control (dose: 115.0 mg/kg/injection, schedule: Q04DX003 (ip), vehicle: saline).
`Cn1c(C(Cl)Cl)nc2ccccc2c1=O`: the T/C runs as follows: (dose: 12.5 mg/kg/injection, schedule: Q01DX009 (ip), vehicle: Klucel (hydroxypropylcellulose) (HPC)) 100 % of control; (dose: 25.0 mg/kg/injection, schedule: Q01DX009 (ip), vehicle: Klucel (hydroxypropylcellulose) (HPC)) 100 % of control; under setting [1], 95 % of control; (dose: 75.0 mg/kg/injection, schedule: Q01DX009 (ip), vehicle: Klucel (hydroxypropylcellulose) (HPC)) 100 % of control; (dose: 115.0 mg/kg/injection, schedule: Q01DX009 (ip), vehicle: Klucel (hydroxypropylcellulose) (HPC)) 114 % of control; (dose: 170.0 mg/kg/injection, schedule: Q01DX009 (ip), vehicle: Klucel (hydroxypropylcellulose) (HPC)) 95 % of control.
Take `c1ccc(-c2cc(-c3ccccc3)on2)cc1`: the T/C was 95 % of control under setting [7], 109 % of control under setting [8] and 104 % of control under setting [9].
As for `Cc1[nH]c(C)c(C(=O)OC2CCN(C)CC2)c1C`, the T/C was 103 % of control (dose: 6.25 mg/kg/injection, schedule: Q04DX003 (ip), vehicle: saline with Tween-80); 100 % of control (dose: 12.5 mg/kg/injection, schedule: Q04DX003 (ip), vehicle: saline with Tween-80); 91 % of control (dose: 25.0 mg/kg/injection, schedule: Q04DX003 (ip), vehicle: saline with Tween-80).
For `c1csc(C[N+]23CN4CN(CN(C4)C2)C3)c1`, the T/C under setting [6] was 116 % of control.
In the case of `CC(=O)N(O)c1ccc(Cl)cc1`, the T/C is 91 % of control and 100 % of control (dose: 25.0 mg/kg/injection, schedule: Q04DX002 (ip), vehicle: saline with Tween-80); 104 % of control and 110 % of control (dose: 50.0 mg/kg/injection, schedule: Q04DX002 (ip), vehicle: saline with Tween-80).
Turning to `CCOC(=O)C[Si](C)(C)C`, the T/C (dose: 25.0 mg/kg/injection, schedule: Q04DX003 (ip), vehicle: Klucel (hydroxypropylcellulose) (HPC)) was 99 % of control; the T/C (dose: 50.0 mg/kg/injection, schedule: Q04DX003 (ip), vehicle: Klucel (hydroxypropylcellulose) (HPC)) was 99 % of control; the T/C under setting [2] is 97 % of control; the T/C under setting [3] is 101 % of control; the T/C under setting [4] was 109 % of control.
Regarding `COC(=O)C1CN(c2ccccc2)N=C1C(C)=O` (centres undefined), the T/C is 89 % of control (dose: 100.0 mg/kg/injection, schedule: Q04DX003 (ip), vehicle: saline with Tween-80) and 86 % of control (dose: 200.0 mg/kg/injection, schedule: Q04DX003 (ip), vehicle: saline with Tween-80).
As to `NC1CCC1N` (centres undefined), the T/C reads like this: (dose: 50.0 mg/kg/injection, schedule: Q01DX001 (ip), vehicle: saline) 110 % of control; (dose: 100.0 mg/kg/injection, schedule: Q01DX001 (ip), vehicle: saline) 105 % of control; (dose: 200.0 mg/kg/injection, schedule: Q01DX001 (ip), vehicle: saline) 105 % of control.
